The target of assay [1] is T1, human mAChR M1 (Homo sapiens, UniProt P11229).
T1 sequence (P11229 1-460): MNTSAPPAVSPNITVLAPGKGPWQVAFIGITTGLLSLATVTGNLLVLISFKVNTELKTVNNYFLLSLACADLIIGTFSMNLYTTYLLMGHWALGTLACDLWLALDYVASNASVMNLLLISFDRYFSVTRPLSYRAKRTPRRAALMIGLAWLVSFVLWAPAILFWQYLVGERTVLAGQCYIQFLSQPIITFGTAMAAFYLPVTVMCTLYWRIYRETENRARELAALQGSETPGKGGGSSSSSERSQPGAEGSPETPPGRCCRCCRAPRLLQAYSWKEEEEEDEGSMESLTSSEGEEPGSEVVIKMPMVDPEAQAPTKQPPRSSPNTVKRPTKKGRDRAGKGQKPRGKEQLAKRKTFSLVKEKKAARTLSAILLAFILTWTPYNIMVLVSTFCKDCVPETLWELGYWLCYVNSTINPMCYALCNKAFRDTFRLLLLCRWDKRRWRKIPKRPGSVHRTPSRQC
Nature of the assay: mAChR M1 cell-based functional assay (calcium mobilization), PAM activity: increase in the EC20 acetylcholine response. To be noted: CHO-K1 cells expressing hM1; calcium flux (Fluo-4); potentiation of EC20 acetylcholine response. From the text:
(§1) Chinese hamster ovary (CHO-K1) cells stably expressing rat (r)M1 were purchased from the American Type Culture Collection and cultured according to their indicated protocol. CHO cells stably expressing human (h)M2, hM3, and hM5 were described previously (Levey, et al., 1991); hM1 and hM4 cDNAs were purchased from Missouri S&T cDNA Resource; rM4 cDNA was provided by T. I. Bonner (National Institutes of Health, Bethesda, Md.). rM2 and rM3 were cloned from a rat brain cDNA library and sequence verified. hM1, rM2, rM3, hM4, and rM4 cDNAs were used to stably transfect CHO-K1 cells purchased from the American Type Culture Collection using Lipofectamine2000. To make stable rM2, hM2, rM3, hM4, and rM4 cell lines for use in calcium mobilization assays, these cells also were stably transfected with a chimeric G-protein (Gqi5) (provided by B. R. Conklin, University of California, San Francisco) using Lipofectamine 2000. rM1, hM1, rM3, hM3, rM5, and hM5 cells were grown in Ham's F-12 medium containing 10% heat-inactivated fetal bovine serum (FBS), 20 mM HEPES, and 50 μg/mL G418 sulfate. rM2-Gqi5, hM2-Gqi5, and hM4-Gqi5 cells were grown in the same medium also containing 500 μg/mL Hygromycin B. Stable rM4-Gqi5 cells were grown in DMEM containing 10% heat-inactivated FBS, 20 mM HEPES, 400 μg/mL G418 sulfate, and 500 μg/mL Hygromycin B.
(§2) For high throughput measurement of agonist-evoked increases in intracellular calcium, CHO-K1 cells stably expressing muscarinic receptors were plated in growth medium lacking G418 and hygromycin at 15,000 cells/20 μL/well in Greiner 384-well black-walled, tissue culture (TC)-treated, clear-bottom plates (VWR). Cells were incubated overnight at 37° C. and 5% CO2. The next day, cells were washed using an ELX 405 (BioTek) with four washes (80 μL) of assay buffer then aspirated to 20 μL. Next, 20 μL of 16 μM Fluo-4/acetoxymethyl ester (Invitrogen, Carlsbad, Calif.) prepared as a 2.3 mM stock in DMSO and mixed in a 1:1 ratio with 10% (w/v) Pluronic F-127 and diluted in assay buffer was added to the wells and the cell plates were incubated for 50 min at 37° C. and 5% CO2. Dye was removed by washing with the ELX 405 (four 80 μL washes of assay buffer) then aspirated to 20 μL. Compound master plates were formatted in an 11 point CRC format (1:3 dilutions) in 100% DMSO with a starting concentration of 10 mM using the BRAVO liquid handler (Agilent). Test compound CRCs were then transferred to daughter plates (240 nL) using the Echo acoustic plate reformatter (Labcyte, Sunnyvale, Calif.) and then diluted into assay buffer (40 μL) to a 2× stock using a Thermo Fisher Combi (Thermo Fisher Scientific, Waltham, Mass.).
(§3) Calcium flux was measured using the Functional Drug Screening System (FDSS) 6000 (Hamamatsu Corporation, Tokyo, Japan) as an increase in the fluorescent static ratio. Compounds were applied to cells (20 μL, 2×) using the automated system of the FDSS 6000 at 4 s into the 300 s protocol and the data were collected at 1 Hz. At 144 s into the 300 s protocol, 10 μL of an EC20 concentration of the muscarinic receptor agonist acetylcholine was added (5×), followed by the addition of 12 μL an EC80 concentration of acetylcholine at the 230 s time point (5×). Agonist activity was analyzed as a concentration-dependent increase in calcium mobilization upon compound addition. Emax values for agonist activity are expressed relative to the maximum for acetylcholine. Positive allosteric modulator activity was analyzed as a concentration-dependent increase in the EC20 acetylcholine response. Antagonist activity was analyzed as a concentration-dependent decrease in the EC80 acetylcholine response. Concentration-response curves were generated using a four-parameter logistical equation in XLfit curve fitting software (IDBS, Bridgewater, N.J.) for Excel (Microsoft, Redmond, Wash.) or Prism (GraphPad Software, Inc., San Diego, Calif.).

Assay [2] deals with T1, human mAChR M1. Nature of the assay: mAChR M1 cell-based functional assay (calcium mobilization), agonist activity upon compound addition alone. To be noted: CHO-K1 cells expressing hM1; for pEC50: calcium mobilization upon compound addition, no acetylcholine; for Emax: compound alone, relative to the maximum for acetylcholine.
Source text: as §1, §2, §3

Molecules are shown by their SMILES. pEC50: −log10 of the molar value.

On to `Cc1ccc(Cc2cc(C(=O)N[C@H]3CCC[C@@H]3O)nc(-c3ccn(C)n3)c2C)cn1` [Compound 67, N-((1S,2S)-2-hydroxycyclopentyl)-5-methyl-6-(1-methyl-1H-pyrazol-3-yl)-4-((6-methylpyridin-3-yl)methyl)picolinamide], for which the Emax at human mAChR M1 [1] stood at 38%. Moreover, at human mAChR M1 [2], the pEC50 was less than 5.00 and the Emax was less than 5%.

For `Cn1ccc(-c2ccc(Cc3cc(C(=O)N[C@H]4CCCC[C@@H]4O)nc(-n4cccn4)c3)cc2)n1` [Compound 29, N-((1S,2S)-2-hydroxycyclohexyl)-4-(4-(1-methyl-1H-pyrazol-3-yl)benzyl)-6-(1H-pyrazol-1-yl)picolinamide], on human mAChR M1 [1], the pEC50 was 5.68 and the Emax worked out at 73%. On human mAChR M1 [2], the negative logarithm of the EC50 (pEC50) is less than 5.00 and the maximum response (Emax) is less than 5%.

Regarding `Cn1ccc(-c2ccc(Cc3cc(C(=O)N[C@H]4CCOC[C@@H]4O)nc(-c4ccn(C)n4)c3)cc2)n1` [Compound 37, N-((3R,4S)-3-hydroxytetrahydro-2H-pyran-4-yl)-6-(1-methyl-1H-pyrazol-3-yl)-4-(4-(1-methyl-1H-pyrazol-3-yl)benzyl)picolinamide], at human mAChR M1 [1], the pEC50 was 5.81 and the Emax was found to be 76%. Besides, at human mAChR M1 [2], the pEC50 was less than 5.00 and the maximal effect (Emax) was less than 5%.

As for `Cn1ccc(-c2ccc(Cc3cc(C(=O)NC4CC5(COC5)C4)nc(-n4cccn4)c3)cc2)n1` [Compound 31, 4-(4-(1-methyl-1H-pyrazol-3-yl)benzyl)-6-(1H-pyrazol-1-yl)-N-(2-oxaspiro[3.3]heptan-6-yl)picolinamide], at human mAChR M1 [1], the maximal response (Emax) is 56%. For the same molecule, on human mAChR M1 [2], the negative logarithm of the EC50 (pEC50) is less than 5.00 and the Emax was less than 5%.

Regarding `Cn1cc(-c2ccc(Cc3cc(C(=O)N[C@H]4CCCC[C@@H]4O)nc(-n4cccn4)c3)cn2)cn1` [Compound 20, N-((1S,2S)-2-hydroxycyclohexyl)-4-((6-(1-methyl-1H-pyrazol-4-yl)pyridin-3-yl)methyl)-6-(1H-pyrazol-1-yl)picolinamide], the values for the pEC50 on human mAChR M1 [1] and at human mAChR M1 [2] were 5.65 and less than 5.00, respectively. In addition, the values for the maximal response (Emax) on human mAChR M1 [1] and at human mAChR M1 [2] were 61% and less than 5%, respectively.

Turning to `Cn1ccc(-c2ccc(Cc3cc(C(=O)NC4CCOCC4)nc(-n4cccn4)c3)cc2)n1` [Compound 30, 4-(4-(1-methyl-1H-pyrazol-3-yl)benzyl)-6-(1H-pyrazol-1-yl)-N-(tetrahydro-2H-pyran-4-yl)picolinamide], at human mAChR M1 [1], the Emax was determined as 65%. Besides, on human mAChR M1 [2], the pEC50 was less than 5.00 and the Emax is less than 5%.

`Cc1nc(-c2ccc(Cc3cc(C(=O)N[C@H]4CCC[C@@H]4O)nc(-n4cccn4)c3C)cc2)co1` [Compound 54, N-((1S,2S)-2-hydroxycyclopentyl)-5-methyl-4-(4-(2-methyloxazol-4-yl)benzyl)-6-(1H-pyrazol-1-yl)picolinamide]: at human mAChR M1 [1], the pEC50 is 5.41 and the maximal response (Emax) came out at 52%. Further, on human mAChR M1 [2], the pEC50 is less than 5.00 and the maximum response (Emax) was less than 5%.

As to `Cc1nc(-c2ccc(Cc3cc(C(=O)NC4CCOCC4)nc(-n4cccn4)c3)cc2)co1` [Compound 27, 4-(4-(2-methyloxazol-4-yl)benzyl)-6-(1H-pyrazol-1-yl)-N-(tetrahydro-2H-pyran-4-yl)picolinamide], on human mAChR M1 [1], the Emax was 62%. At human mAChR M1 [2], the negative logarithm of the EC50 (pEC50) was less than 5.00 and the Emax is 6%.

Regarding `Cn1cc(-c2ccc(Cc3cc(C(=O)N[C@H]4CCC[C@@H]4O)nc(-c4ccn(C)n4)c3)cn2)cn1` [Compound 6, N-((1S,2S)-2-hydroxycyclopentyl)-6-(1-methyl-1H-pyrazol-3-yl)-4-((6-(1-methyl-1H-pyrazol-4-yl)pyridin-3-yl)methyl)picolinamide], the maximal effect (Emax) at human mAChR M1 [1] came out at 67%. Moreover, on human mAChR M1 [2], the pEC50 was less than 5.00 and the Emax was less than 5%.

In the case of `Cc1c(Cc2ccc(-c3ccn(C)n3)cc2)cc(C(=O)NC[C@H]2CCCO2)nc1-c1ccn(C)n1` [Compound 16, (R)-5-methyl-6-(1-methyl-1H-pyrazol-3-yl)-4-(4-(1-methyl-1H-pyrazol-3-yl)benzyl)-N-((tetrahydrofuran-2-yl)methyl)picolinamide], the Emax on human mAChR M1 [1] was 62%. In addition, at human mAChR M1 [2], the pEC50 was less than 5.00 and the Emax is less than 5%.

In the case of `Cc1c(Cc2ccc(-c3ccn(C)n3)cc2)cc(C(=O)N[C@H]2CCCC[C@@H]2O)nc1-c1ccn(C)n1` [Compound 10, N-((1S,2S)-2-hydroxycyclohexyl)-5-methyl-6-(1-methyl-1H-pyrazol-3-yl)-4-(4-(1-methyl-1H-pyrazol-3-yl)benzyl)picolinamide], the figures for the pEC50 on human mAChR M1 [1] and at human mAChR M1 [2] were 6.04 and not above 5.00, respectively. Further, the Emax on human mAChR M1 [1] was found to be 86%; at human mAChR M1 [2] it was 13%.

As for `Cn1cc(-c2cc(Cc3ccc(-c4ccn(C)n4)cc3)cc(C(=O)N[C@H]3CCCC[C@@H]3O)n2)cn1` [Compound 40, N-((1S,2S)-2-hydroxycyclohexyl)-4-(4-(1-methyl-1H-pyrazol-3-yl)benzyl)-6-(1-methyl-1H-pyrazol-4-yl)picolinamide], on human mAChR M1 [1], the pEC50 is 5.03 and the maximal effect (Emax) worked out at 57%. Also, on human mAChR M1 [2], the pEC50 is less than 5.00 and the Emax was less than 5%.

Turning to `Cn1cc(-c2ccc(Cc3cc(C(=O)NC4CCOCC4)nc(-n4cccn4)c3)cn2)cn1` [Compound 26, 4-((6-(1-methyl-1H-pyrazol-4-yl)pyridin-3-yl)methyl)-6-(1H-pyrazol-1-yl)-N-(tetrahydro-2H-pyran-4-yl)picolinamide], the Emax on human mAChR M1 [1] came to 47%. Further, at human mAChR M1 [2], the negative logarithm of the EC50 (pEC50) was less than 5.00 and the Emax came out at 5%.

Turning to `Cc1c(Cc2ccc(-c3ccn(C)n3)cc2)cc(C(=O)NC[C@@H]2CCCO2)nc1-c1ccn(C)n1` [Compound 15, (S)-5-methyl-6-(1-methyl-1H-pyrazol-3-yl)-4-(4-(1-methyl-1H-pyrazol-3-yl)benzyl)-N-((tetrahydrofuran-2-yl)methyl)picolinamide], on human mAChR M1 [1], the negative logarithm of the EC50 (pEC50) was 5.34 and the Emax came out at 82%. Besides, on human mAChR M1 [2], the pEC50 was less than 5.00 and the Emax was less than 5%.

Consider `Cc1nc(-c2ccc(Cc3cc(C(=O)N[C@H]4CC[C@@H]4O)nc(-n4cccn4)c3)cc2)co1` [Compound 25, N-((1S,2S)-2-hydroxycyclobutyl)-4-(4-(2-methyloxazol-4-yl)benzyl)-6-(1H-pyrazol-1-yl)picolinamide], for which the values for the Emax on human mAChR M1 [1] and at human mAChR M1 [2] were 40% and less than 5%, respectively. For the same molecule, the pEC50 at human mAChR M1 [2] is less than 5.00.

(Values after patent publication US11851406B2, “Positive allosteric modulators of the muscarinic acetylcholine receptor M1” (Vanderbilt University, priority 2018, dated 2023).)
